The test system of assay [1] is H1 human embryonic stem cells. The experiment in a line: Primary screening: definitive endoderm differentiation in the absence of activin A, cell number and SOX17 (Example 3). Type of assay: cell-based. Conditions: for Cell Number, % of positive control / Sox17 Intensity % of positive control: Table 2 hit subset of primary screening, no activin A; for Cell Number, % of positive control / Sox17 Intensity % of positive control / SOX17 expression in the absence of activin A: 2.5 μM; for Cell Number: % of positive control / Sox17 Expression: % of positive control / Sox17 Expression: Average Total Intensity / Cell Number: Average Total Cell Number: 2.5 μM compound, 20 ng/ml Wnt3a days 1-2, no activin A, four-day assay; for Cell Number: Average Total Cell Number: positive control 100 ng/ml activin A + Wnt3a; for SOX17 expression in the absence of activin A: primary screening. As to the method:
Briefly, clusters of H1 human embryonic stem cells were grown on reduced growth factor […]™ (Invitrogen; Cat #1356231)-coated tissue culture plastic. Cells were passaged using collagenase (Invitrogen; Cat #17104-019) treatment and gentle scraping, washed to remove residual enzyme, and plated with even dispersal at a ratio of 1:1 (surface area) on reduced growth factor […]™-coated 96-well black plates (Packard ViewPlates; PerkinElmer; Cat #6005182) using volumes of 100 μl/well. Cells were allowed to attach as clusters and then recover log phase growth over a 1 to 3 day period, feeding daily with MEF conditioned medium supplemented with 8 ng/ml bFGF (R&D Systems; Cat #233-FB). Plates were maintained at 37° C., 5% CO2 in a humidified box throughout the duration of assay.
The compounds tested were made available as 5 mM stocks in 96-well plate format, solubilized in 100% DMSO (Sigma; Cat #D2650) and stored at −80° C. The library compounds were further diluted to an intermediate concentration of 0.2 mM in 50 mM HEPES (Invitrogen; Cat #15630-080), 20% DMSO and stored at 4° C. Test conditions were performed in triplicate, feeding on alternate days over a four-day assay period. Primary screening assays were initiated by aspirating culture medium from each well followed by three washes in PBS (Invitrogen; Cat #14190) to remove residual growth factors and serum. On the first day of assay, test volumes of 200 μl per well were added back containing DMEM:F12 base medium (Invitrogen; Cat #11330-032) supplemented with 0.5% FCS (HyClone; Cat #SH30070.03) and 20 ng/ml Wnt3a (R&D Systems; Cat #1324-WN) plus 2.5 μM test compound. On the third day of assay, test volumes of 200 μl per well were added back containing DMEM:F12 base medium supplemented with 2% FCS plus 2.5 μM test compound, without Wnt3a. Positive control samples contained the same base medium supplemented with FCS, substituting 100 ng/ml recombinant human activin A (PeproTech; Cat #120-14) for the test compound throughout the four-day assay along with Wnt3a (20 ng/ml) added only on days 1 and 2. Negative control samples contained DMEM:F12 base medium supplemented with FCS, adding Wnt3a on days 1 and 2 but omitting activin A.
At the conclusion of four-days of culture, assay plates were washed twice with PBS (Invitrogen; Cat #14190), fixed with 4% paraformaldehyde (Alexis Biochemical; Cat #ALX-350-011) at room temperature for 20 minutes, then washed three times with PBS and permeabilized with 0.5% Triton X-100 (Sigma; Cat #T8760-2) for 20 minutes at room temperature. Cells were washed again three times with PBS and blocked with 4% chicken serum (Invitrogen; Cat #16110082) in PBS for 30 minutes at room temperature. Primary antibody (goat anti-human SOX17; R&D Systems; Cat #AF1924) was diluted 1:100 in 4% chicken serum and added to each well for one hour at room temperature. Alexa Fluor 488 conjugated secondary antibody (chicken anti-goat IgG; Molecular Probes; Cat #AZ1467) was diluted 1:200 in PBS and added to each sample well after washing three times with PBS. To counter stain nuclei, 4 μg/ml Hoechst 33342 (Invitrogen; Cat #H3570) was added for ten minutes at room temperature. Plates were washed once with PBS and left in 100 μl/well PBS for imaging.
Imaging was performed using an IN Cell Analyzer 1000 (GE Healthcare) utilizing the 51008bs dichroic for cells stained with Hoechst 33342 and Alexa Fluor 488. Exposure times were optimized from positive control wells and from untreated negative control wells stained with secondary antibody alone. Images from 15 fields per well were acquired to compensate for any cell loss during the bioassay and subsequent staining procedures. Measurements for total cell number and total SOX17 intensity were obtained from each well using IN Cell Developer Toolbox 1.7 (GE Healthcare) software. Segmentation for the nuclei was determined based on gray-scale levels (baseline range 100-300) and nuclear size. […]

For assay [2], the system named is H1 human embryonic stem cells. The assay is described as follows: Step-wise differentiation, FACS for CXCR4 after step 1 (Example 12). Type of assay: cell-based. Conditions: compared to activin A and Wnt3a. The procedure: The assay was initiated by aspirating the culture medium from each well and adding back an aliquot (0.5 ml) of test medium. Test conditions for the first step of differentiation were conducted over a three-day period, feeding daily by aspirating and replacing the medium from each well with fresh test medium. On the first day of assay, 100 ng/ml activin A (PeproTech; Cat #120-14) or 200 ng/ml GDF-8 (R&D Systems, Cat #788-G8) was added to respective assay wells where each growth factor was diluted into RPMI-1640 medium (Invitrogen; Cat #22400) with 1% Albumin Bovine Fraction V, Fatty Acid Free (FAF BSA) (MP Biomedicals, Inc; Cat 152401), 1% Probumin (Millipore; Cat #81-068-3) and 20 ng/ml Wnt3a (R&D Systems; Cat #1324-WN/CF). On the second day of assay, 100 ng/ml activin A or 200 ng/ml GDF-8 was diluted into RPMI-1640 medium supplemented with 2% FAF BSA without Wnt3a. In some test samples using GDF-8, Wnt3a was replaced with a either Compound 34 or Compound 56 at a concentration of 2.5 μM, and either Compound 34 or Compound 56 was added daily during all three days of definitive endoderm differentiation. At the conclusion of the first step of differentiation, cells from some wells were harvested for flow cytometry analysis to evaluate levels of CXCR4, a marker of definitive endoderm formation. Additional wells were harvested for RT-PCR analysis to measure other markers of differentiation.
Cells for FACS analysis were blocked in a 1:5 solution of 0.5% human gamma-globulin (Sigma; Cat#G-4386) in PBS (Invitrogen; Cat #14040-133): BD FACS staining buffer-BSA (BD; Cat #554657) for 15 minutes at 4° C. Cells were then stained with antibodies for CD9 PE (BD; Cat #555372), CD99 PE (Caltag; Cat #MHCD9904) and CXCR4 APC(R&D Systems; Cat#FAB 173A) for 30 minutes at 4° C. After a series of washes in BD FACS staining buffer, the cells were stained for viability with 7-AAD (BD; Cat #559925) and run on a BD FACSAiray. A mouse IgG1K Isotype control antibody for both PE and APC was used to gate percent positive cells.

Where [3] appears, read: 200 ng/ml GDF-8 with 2.5 μM compound all three days.

The source of these data is US9593305B2, “Differentiation of pluripotent stem cells” (Janssen Biotech, Inc., priority 2008, dated 2017).

Take `CN1CCC(=O)NCCCNc2ncccc2-c2ncnc(n2)Nc2cccc(c2)C1` [Compound 39, 9-Methyl-2,3,4,5,7,8,9,10-octahydro-16H-17,21-(azeno)-11,15-(metheno)pyrido[3,2-g][1,3,5,9,13,17]hexaazacyclotricosin-6(1H)-one]: in assay [1], the “Cell Number, % of positive control” value is given as 147.0 % of positive control and the “Sox17 Intensity % of positive control” value was 35.2 % of positive control.

Regarding `CN1CCC(=O)NCCCNc2cccc(c2)-c2ncnc(n2)Nc2cccc(c2)C1` [Compound 21, 14-Methyl-3,5,7,14,18,22,29-heptaazatetracyclo[21.3.1.1˜2,6˜0.1˜8,12˜]nonacosa-1(27), 2(29), 3,5,8(28), 9,11,23,25-nonaen-17-one], in assay [1], the “Cell Number: % of positive control” value is 44.44 % of positive control, the “Sox17 Expression: % of positive control” value is −0.61 % of positive control, the “Sox17 Expression: Average Total Intensity” value is recorded as −1.96E+06 and the “Cell Number: Average Total Cell Number” value worked out at 4719.

Turning to `O=C1CCN2CCN(CC2)Cc2cccc(c2)Nc2ncnc(n2)-c2cncc(c2)CCCN1` [Compound 23, 1,8,10,12,16,22,26,32-Octaazapentacyclo[24.2.2.1-3,7˜0.1˜9,13˜0.1˜14,18˜]tritriaconta-3(33), 4,6,9(32), 10,12,14(31), 15,17-nonaen-23-one], in assay [1], the “Cell Number: % of positive control” value is on record as 24.13 % of positive control, the “Sox17 Expression: % of positive control” value is −0.48 % of positive control, the “Sox17 Expression: Average Total Intensity” value is −1.56E+06 and the “Cell Number: Average Total Cell Number” value is on record as 2563.

As for `CCN1CCCc2cccc(c2)-c2ncnc(n2)Nc2cccc(c2)CCNC(=O)C1` [Compound 29, 18-Ethyl-3,5,7,15,18,28-hexaazatetracyclo[20.3.1.1˜2,6˜0.1˜8,12˜]octacosa-1(26), 2(28), 3,5,8(27), 9,11,22,24-nonaen-16-one], in assay [1], the “Cell Number, % of positive control” value is 136.0 % of positive control and the “Sox17 Intensity % of positive control” value is 34.5 % of positive control.

On to `O=C1CCN2CCN(CC2)Cc2cc(Cl)cc(c2)Nc2ncnc(n2)-c2cncc(c2)CCCN1` [Compound 34, 5-Chloro-1,8,10,12,16,22,26,32-octaazapentacyclo[24.2.2.1˜3.7˜0.1˜9,13˜0.1˜14.18˜]tritriaconta-3(33), 4,6,9(32), 10,12,14(31), 15,17-nonaen-23-one], for which, in assay [1], the “Cell Number, % of positive control” value was 114.8 % of positive control and the “Sox17 Intensity % of positive control” value is 44.5 % of positive control. For the same compound, in assay [2] (setting [3]), the “percentage of CXCR4 positive cells after step 1” value (shortened to “percentage”) is listed as “equivalent or higher percentage of CXCR4 positive cells”.

Regarding `O=C1NCCCc2cncc(c2)-c2ncnc(n2)Nc2cccc(c2)CN2CCCC1C2` (stereo not shown) [Compound 17, 3,5,7,14,20,26,31-Heptaazapentacyclo[22.3.1.1-2,6˜1˜8,12˜1˜14,18˜]hentriaconta-1(28), 2(31), 3,5,8(30), 9,11,24,26-nonaen-19-one], in assay [1], the “Cell Number, % of positive control” value is recorded as 133.8 % of positive control and the “Sox17 Intensity % of positive control” value is −0.7 % of positive control.

Turning to `CCN1CC(=O)NCCCc2cc(ccc2F)-c2ncnc(n2)Nc2cc(Cl)cc(c2)C1` [Compound 25, 10-Chloro-14-ethyl-22-fluoro-3,5,7,14,17,27-hexaazatetracyclo[19.3.1.1˜2,6˜0.1˜8,12˜]heptacosa-1(25), 2(27), 3,5,8(26), 9,11,21,23-nonaen-16-one], in assay [1], the “Cell Number: % of positive control” value was 146.17 % of positive control, the “Sox17 Expression: % of positive control” value is 20.32 % of positive control, the “Sox17 Expression: Average Total Intensity” value is recorded as 4.03E+07 and the “Cell Number: Average Total Cell Number” value amounted to 4151.

Take `O=C1NCCCc2cncc(c2)-c2ncnc(n2)Nc2cc(Cl)cc(c2)CN2CCCC1C2` (stereo not shown) [Compound 37, 10-Chloro-3,5,7,14,20,26,31-heptaazapentacyclo[22.3.1.1˜2,6˜0.1˜8,12˜0.1˜14,18˜]hentriaconta-1(28), 2(31), 3,5,8(30), 9,11,24,26-nonaen-19-one]: in assay [1], the “Cell Number, % of positive control” value was 129.3 % of positive control and the “Sox17 Intensity % of positive control” value is 29.1 % of positive control.

For the compound “GDF-8: growth factor GDF-8, also known as myostatin, member of the TGF-β family”, the “percentage” value in assay [2] (200 ng/ml GDF-8 with Wnt3a) is reported as “equivalent percentage of CXCR4 positive cells”.

`CCN1CC(=O)NCCCc2cncc(c2)-c2ncnc(n2)Nc2cc(Cl)cc(c2)C1` [Compound 35, 10-Chloro-14-ethyl-3,5,7,14,17,23,27-heptaazatetracyclo[19.3.1.1˜2,6˜0.1˜8,12]Theptacosa-1(25), 2(27), 3,5,8(26), 9,11,21,23-nonaen-16-one]: in assay [1], the “Cell Number, % of positive control” value was 158.7 % of positive control; the “Sox17 Intensity % of positive control” value is recorded as 86.8 % of positive control; the “SOX17 expression in the absence of activin A” value is listed as “SOX17 expression was induced”.

Turning to `O=C1NCCCc2cncc(c2)-c2ncnc(n2)Nc2cccc(c2)CN2CCC1CC2` [Compound 22, 1,8,10,12,16,22,30-Heptaazapentacyclo[22.2.2.1-3,7˜0.1˜9,13˜1-14,18˜]hentriaconta-3(31), 4,6,9(30), 10,12,14(29), 15,17-nonaen-23-one], in assay [1], the “Cell Number, % of positive control” value was 132.7 % of positive control; the “Sox17 Intensity % of positive control” value is 72.4 % of positive control; the “SOX17 expression in the absence of activin A” value is given as “SOX17 expression was induced”.

As for `Cc1c[nH]c(-c2cnc(NCCNc3ccc(C#N)cn3)nc2-c2ccc(Cl)cc2Cl)n1` [Compound 56, 6-[(2-{[4-(2,4-Dichlorophenyl)-5-(4-methyl-1H-imidazol-2-yl)pyrimidin-2-yl]amino}ethyl)amino]pyridine-3-carbonitrile], in assay [2] (setting [3]), the “percentage” value was “equivalent or higher percentage of CXCR4 positive cells”.
